{"source": "ChEMBL document CHEMBL2417517", "about": "“Isolation, structures, and biological activities of triterpenoids from a Penares sp. marine sponge” (J Nat Prod, 2013)", "tested_on": "HL-60", "test": "Cytotoxicity against human HL60 cells after 46 hrs by MTS assay", "assay_type": "functional, cell-based", "conditions": "HL-60, 46 h"}
{"compound": "CC(C)=CCC[C@@H](C)[C@H]1CC[C@]23C(=O)O[C@]4(CC[C@]12C)C3=CC[C@H]1C(C)(C)[C@@H](O)CC[C@@]14C", "values": [{"measurement": "IC50", "value": 9.7, "unit": "µM"}]}
